The target in the data set is human serum albumin (HSA) (Homo sapiens, UniProt P02768). Kind of data set: Albumin binding affinity, competition scintillation proximity assay. Particulars: for EC50 at 20 h: human, biotinylated human serum albumin on streptavidin-SPA beads, pH 7.4. On the technique in general: Scintillation proximity formats need no separation of bound from free tracer.
human serum albumin (HSA), sequence (P02768 25-609): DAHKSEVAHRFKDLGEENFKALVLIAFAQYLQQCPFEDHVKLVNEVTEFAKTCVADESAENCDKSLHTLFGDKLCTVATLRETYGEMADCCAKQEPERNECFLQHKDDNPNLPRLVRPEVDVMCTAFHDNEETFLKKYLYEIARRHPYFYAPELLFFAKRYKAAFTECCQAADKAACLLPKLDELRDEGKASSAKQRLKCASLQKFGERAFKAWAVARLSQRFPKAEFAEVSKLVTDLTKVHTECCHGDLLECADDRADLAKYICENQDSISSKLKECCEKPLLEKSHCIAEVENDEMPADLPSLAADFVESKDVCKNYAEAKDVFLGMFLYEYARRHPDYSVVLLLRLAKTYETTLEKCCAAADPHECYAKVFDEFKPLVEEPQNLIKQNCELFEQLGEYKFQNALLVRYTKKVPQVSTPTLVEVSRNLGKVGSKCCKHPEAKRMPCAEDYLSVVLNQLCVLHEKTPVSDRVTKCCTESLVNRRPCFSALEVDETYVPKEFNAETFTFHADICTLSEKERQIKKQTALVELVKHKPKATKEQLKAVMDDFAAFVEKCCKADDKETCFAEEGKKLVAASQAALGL

Experimental: Streptavidin-SPA beads (GE Healthcare RPNQ0009) were incubated with biotinylated HSA for 5 hours. The beads were washed with buffer to remove unbound HSA. […] After 20 hours of gentle rocking at room temperature the plates were centrifuged and counted on a TopCounter.

`CC[C@H](C)[C@H](NC(=O)[C@H](Cc1ccccc1)NC(=O)[C@H](CCC(=O)O)NC(=O)[C@H](CCCNC(=N)N)NC(=O)[C@H](C)NC(=O)[C@H](C)NC(=O)[C@H](CCC(N)=O)NC(=O)CNC(=O)[C@H](CCC(=O)O)NC(=O)[C@H](CC(C)C)NC(=O)[C@H](Cc1ccc(O)cc1)NC(=O)[C@H](CO)NC(=O)[C@H](CO)NC(=O)[C@@H](NC(=O)[C@H](CC(=O)O)NC(=O)[C@H](CO)NC(=O)[C@@H](NC(=O)[C@H](Cc1ccccc1)NC(=O)[C@@H](NC(=O)CNC(=O)[C@H](CCC(=O)O)NC(=O)[C@H](C)NC(=O)CCc1cnc[nH]1)[C@@H](C)O)[C@@H](C)O)C(C)C)C(=O)N[C@@H](C)C(=O)N[C@@H](Cc1c[nH]c2ccccc12)C(=O)N[C@@H](CC(C)C)C(=O)N[C@H](C(=O)N[C@@H](CCCNC(=N)N)C(=O)NCC(=O)N[C@@H](CCCNC(=N)N)C(=O)NCC(=O)N[C@@H](CCCCNC(=O)COCCOCCNC(=O)COCCOCCNC(=O)CC[C@H](NC(=O)[C@H]1CC[C@H](CNC(=O)CCCCCCCCCCCCCCCCCCC(=O)O)CC1)C(=O)O)C(N)=O)C(C)C` [Example 28]: the EC50 was > 2 µM.

Regarding `CC[C@H](C)[C@H](NC(=O)[C@H](Cc1ccccc1)NC(=O)[C@H](CCC(=O)O)NC(=O)[C@H](CCCNC(=N)N)NC(=O)[C@H](C)NC(=O)[C@H](C)NC(=O)[C@H](CCC(N)=O)NC(=O)CNC(=O)[C@H](CCC(=O)O)NC(=O)[C@H](CC(C)C)NC(=O)[C@H](Cc1ccc(O)cc1)NC(=O)[C@H](CO)NC(=O)[C@H](CO)NC(=O)[C@@H](NC(=O)[C@H](CC(=O)O)NC(=O)[C@H](CO)NC(=O)[C@@H](NC(=O)[C@H](Cc1ccccc1)NC(=O)[C@@H](NC(=O)CNC(=O)[C@H](CCC(=O)O)NC(=O)[C@H](C)NC(=O)CCc1c[nH]cn1)[C@@H](C)O)[C@@H](C)O)C(C)C)C(=O)N[C@@H](C)C(=O)N[C@@H](Cc1c[nH]c2ccccc12)C(=O)N[C@@H](CC(C)C)C(=O)N[C@H](C(=O)N[C@@H](CCCNC(=N)N)C(=O)NCC(=O)N[C@@H](CCCNC(=N)N)C(=O)N[C@@H](CCCCNC(=O)COCCOCCNC(=O)COCCOCCNC(=O)CC[C@H](NC(=O)[C@H]1CC[C@H](CNC(=O)CCCCCCCCCCCCCCCCCCC(=O)O)CC1)C(=O)O)C(=O)O)C(C)C` [Example 31, N-epsilon37-[2-(2-{2-[2-(2-{2-[(S)-4-Carboxy-4-({trans-4-[(19-carboxy-nonadecanoylamino)methyl]cyclohexanecarbonyl}amino)butyrylamino]ethoxy}ethoxy)acetylamino]ethoxy}ethoxy)acetyl][DesaminoHis7,Arg26,Arg34,Lys37]GLP-1-(7-37)], the EC50 at 20 h was 0.3 to 0.8 µM.

As for `CC[C@H](C)[C@H](NC(=O)[C@H](Cc1ccccc1)NC(=O)[C@H](CCC(=O)O)NC(=O)[C@H](CCCCNC(=O)COCCOCCNC(=O)CC[C@H](NC(=O)CC[C@H](NC(=O)CCCNC(=O)CCCS(=O)(=O)NC(=O)CCCCCCCCCCCCCCCc1nnn[nH]1)C(=O)O)C(=O)O)NC(=O)[C@H](C)NC(=O)[C@H](C)NC(=O)[C@H](CCC(N)=O)NC(=O)CNC(=O)[C@H](CCC(=O)O)NC(=O)[C@H](CC(C)C)NC(=O)[C@H](Cc1ccc(O)cc1)NC(=O)[C@H](CO)NC(=O)[C@H](CO)NC(=O)[C@@H](NC(=O)[C@H](CC(=O)O)NC(=O)[C@H](CO)NC(=O)[C@@H](NC(=O)[C@H](Cc1ccccc1)NC(=O)[C@@H](NC(=O)CNC(=O)[C@H](CCC(=O)O)NC(=O)C(C)(C)NC(=O)[C@@H](N)Cc1c[nH]cn1)[C@@H](C)O)[C@@H](C)O)C(C)C)C(=O)N[C@@H](C)C(=O)N[C@@H](Cc1c[nH]c2ccccc12)C(=O)N[C@@H](CC(C)C)C(=O)N[C@H](C(=O)N[C@@H](CCCNC(=N)N)C(=O)O)C(C)C` [Example 36, N-epsilon26-[2-(2-{2-[(S)-4-Carboxy-4-((S)-4-carboxy-4-{4-[4-(16-(1H-tetrazol-5-yl)hexadecanoylsulfamoyl)butyrylamino]butyrylamino}butyrylamino)butyrylamino]ethoxy}ethoxy)acetyl][Aib8,Arg34]GLP-1-(7-34)], the EC50 at 20 h is 0.1 to 0.15 µM.

Take `CC[C@H](C)[C@H](NC(=O)[C@H](Cc1ccccc1)NC(=O)[C@H](CCC(=O)O)NC(=O)[C@H](CCCCNC(=O)COCCOCCNC(=O)CC[C@H](NC(=O)CC[C@H](NC(=O)CCCCCCCCCCCNC(=O)CCCS(=O)(=O)NC(=O)CCCCCCCCCCCCCCCc1nnn[nH]1)C(=O)O)C(=O)O)NC(=O)[C@H](C)NC(=O)[C@H](C)NC(=O)[C@H](CCC(N)=O)NC(=O)CNC(=O)[C@H](CCC(=O)O)NC(=O)[C@H](CC(C)C)NC(=O)[C@H](Cc1ccc(O)cc1)NC(=O)[C@H](CO)NC(=O)[C@H](CO)NC(=O)[C@@H](NC(=O)[C@H](CC(=O)O)NC(=O)[C@H](CO)NC(=O)[C@@H](NC(=O)[C@H](Cc1ccccc1)NC(=O)[C@@H](NC(=O)CNC(=O)[C@H](CCC(=O)O)NC(=O)C(C)(C)NC(=O)[C@@H](N)Cc1c[nH]cn1)[C@@H](C)O)[C@@H](C)O)C(C)C)C(=O)N[C@@H](C)C(=O)N[C@@H](Cc1c[nH]c2ccccc12)C(=O)N[C@@H](CC(C)C)C(=O)N[C@H](C(=O)N[C@@H](CCCNC(=N)N)C(=O)O)C(C)C` [Example 37, N-epsilon26-[2-(2-{2-[(S)-4-Carboxy-4-((S)-4-carboxy-4-{12-[4-(16-(1H-tetrazol-5-yl)hexadecanoylsulfamoyl)butyrylamino]-dodecanoylamino}butyrylamino)butyrylamino]ethoxy}ethoxy)acetyl][Aib8,Arg34]GLP-1-(7-34)]: the EC50 at 20 h lay in the range of 0.001 to 0.1 µM.

Compound `CC[C@H](C)[C@H](NC(=O)[C@H](Cc1ccccc1)NC(=O)[C@H](CCC(=O)O)NC(=O)[C@H](CCCCNC(=O)COCCOCCNC(=O)CC[C@H](NC(=O)CC[C@H](NC(=O)CCCCCNC(=O)CCCS(=O)(=O)NC(=O)CCCCCCCCCCCCCCCc1nnn[nH]1)C(=O)O)C(=O)O)NC(=O)[C@H](C)NC(=O)[C@H](C)NC(=O)[C@H](CCC(N)=O)NC(=O)CNC(=O)[C@H](CCC(=O)O)NC(=O)[C@H](CC(C)C)NC(=O)[C@H](Cc1ccc(O)cc1)NC(=O)[C@H](CO)NC(=O)[C@H](CO)NC(=O)[C@@H](NC(=O)[C@H](CC(=O)O)NC(=O)[C@H](CO)NC(=O)[C@@H](NC(=O)[C@H](Cc1ccccc1)NC(=O)[C@@H](NC(=O)CNC(=O)[C@H](CCC(=O)O)NC(=O)C(C)(C)NC(=O)[C@@H](N)Cc1c[nH]cn1)[C@@H](C)O)[C@@H](C)O)C(C)C)C(=O)N[C@@H](C)C(=O)N[C@@H](Cc1c[nH]c2ccccc12)C(=O)N[C@@H](CC(C)C)C(=O)N[C@H](C(=O)N[C@@H](CCCNC(=N)N)C(=O)O)C(C)C` [Example 38, N-epsilon26-[2-(2-{2-[(S)-4-Carboxy-4-((S)-4-carboxy-4-{6-[4-(16-(1H-tetrazol-5-yl)hexadecanoylsulfamoyl)butyrylamino]hexanoylamino}butyrylamino)butyrylamino]ethoxy}ethoxy)acetyl][Aib8,Arg34]GLP-1-(7-34)] came in with an EC50 at 20 h of 0.001 to 0.1 µM.

With `CC[C@H](C)[C@H](NC(=O)[C@H](Cc1ccccc1)NC(=O)[C@H](CCC(=O)O)NC(=O)[C@H](CCCCNC(=O)COCCOCCNC(=O)CC[C@H](NC(=O)CC[C@H](NC(=O)CCCCCNC(=O)CCCS(=O)(=O)NC(=O)CCCCCCCCCCCCCCCc1nnn[nH]1)C(=O)O)C(=O)O)NC(=O)[C@H](C)NC(=O)[C@H](C)NC(=O)[C@H](CCC(N)=O)NC(=O)CNC(=O)[C@H](CCC(=O)O)NC(=O)[C@H](CC(C)C)NC(=O)[C@H](Cc1ccc(O)cc1)NC(=O)[C@H](CO)NC(=O)[C@H](CO)NC(=O)[C@@H](NC(=O)[C@H](CC(=O)O)NC(=O)[C@H](CO)NC(=O)[C@@H](NC(=O)[C@H](Cc1ccccc1)NC(=O)[C@@H](NC(=O)CNC(=O)[C@H](CCC(=O)O)NC(=O)C(C)(C)NC(=O)[C@@H](N)Cc1c[nH]cn1)[C@@H](C)O)[C@@H](C)O)C(C)C)C(=O)N[C@@H](C)C(=O)N[C@@H](Cc1c[nH]c2ccccc12)C(=O)N[C@@H](CC(C)C)C(=O)N[C@H](C(=O)N[C@@H](CCCNC(=N)N)C(=O)NCC(=O)N[C@@H](CCCNC(=N)N)C(N)=O)C(C)C` [Example 41, N-epsilon26-[2-(2-{2-[(S)-4-Carboxy-4-((S)-4-carboxy-4-{6-[4-(16-(1H-tetrazol-5-yl)hexadecanoylsulfamoyl)butyrylamino]hexanoylamino}butyrylamino)butyrylamino]ethoxy}ethoxy)acetyl][Aib8,Arg34]GLP-1-(7-36)amide], the EC50 lay in the range of 0.15 to 0.3 µM.

`CC[C@H](C)[C@H](NC(=O)[C@H](Cc1ccccc1)NC(=O)[C@H](CCC(=O)O)NC(=O)[C@H](CCCCNC(=O)COCCOCCNC(=O)CC[C@H](NC(=O)CC[C@H](NC(=O)CCCCCCCCCCCNC(=O)CCCS(=O)(=O)NC(=O)CCCCCCCCCCCCCCCc1nnn[nH]1)C(=O)O)C(=O)O)NC(=O)[C@H](C)NC(=O)[C@H](C)NC(=O)[C@H](CCC(N)=O)NC(=O)CNC(=O)[C@H](CCC(=O)O)NC(=O)[C@H](CC(C)C)NC(=O)[C@H](Cc1ccc(O)cc1)NC(=O)[C@H](CO)NC(=O)[C@H](CO)NC(=O)[C@@H](NC(=O)[C@H](CC(=O)O)NC(=O)[C@H](CO)NC(=O)[C@@H](NC(=O)[C@H](Cc1ccccc1)NC(=O)[C@@H](NC(=O)CNC(=O)[C@H](CCC(=O)O)NC(=O)C(C)(C)NC(=O)[C@@H](N)Cc1c[nH]cn1)[C@@H](C)O)[C@@H](C)O)C(C)C)C(=O)N[C@@H](C)C(=O)N[C@@H](Cc1c[nH]c2ccccc12)C(=O)N[C@@H](CC(C)C)C(=O)N[C@H](C(=O)N[C@@H](CCCNC(=N)N)C(=O)NCC(=O)N[C@@H](CCCNC(=N)N)C(N)=O)C(C)C` [Example 44, N-epsilon26-[2-(2-{2-[(S)-4-Carboxy-4-((S)-4-carboxy-4-{12-[4-(16-(1H-tetrazol-5-yl)hexadecanoylsulfamoyl)butyrylamino]dodecanoylamino}butyrylamino)butyrylamino]ethoxy}ethoxy)acetyl][Aib8,Arg34]GLP-1-(7-36)amide] returned an EC50 of 0.001 to 0.1 µM.

The term EC50 denotes the concentration needed to bring the measured effect to its halfway point. Low values mean greater potency, high ones weaker potency.

The values above are taken from patent US9067977B2, “Peptides derivatized with A-B-C-D- and their therapeutical use” (Novo Nordisk A/S, priority 2007, dated 2015).
